In patent US7304093B2, “Ketone compounds and compositions for cholesterol management and related uses” (Esperion Therapeutics, Inc., priority 2000, dated 2007):
Where two headings read alike, the source gives them in different places.

How the values were obtained:
primary rat hepatocytes = assay: Inhibition of lipid synthesis ([1-14C]-acetate incorporation) in primary cultures of rat hepatocytes; format: cell-based; conditions: Hepatocyte, 4 h incubation with [1-14C]-acetate
Protocol: Compounds were tested for inhibition of lipid synthesis in primary cultures of rat hepatocytes. Male Sprague-Dawley rats were anesthetized with intraperitoneal injection of sodium pentobarbital (80 mg/kg). Rat hepatocytes were isolated essentially as described by the method of Seglen (Seglen, P. O. Hepatocyte suspensions and cultures as tools in experimental carcinogenesis. J. Toxicol. Environ. Health 1979, 5, 551-560). Hepatocytes were suspended in Dulbecco's Modified Eagles Medium containing 25 mM D-glucose, 14 mM HEPES, 5 mM L-glutamine, 5 mM leucine, 5 mM alanine, 10 mM lactate, 1 mM pyruvate, 0.2% bovine serum albumin, 17.4 mM non-essential amino acids, 20% fetal bovine serum, […] and 20 μg/mL gentamycin) and plated at a density of 1.5×10^5 cells/cm^2 on collagen-coated 96-well plates. Four hours after plating, media was replaced with the same media without serum. Cells were grown overnight to allow formation of monolayer cultures. Lipid synthesis incubation conditions were initially assessed to ensure the linearity of [1-^14C]-acetate incorporation into hepatocyte lipids for up to 4 hours. Hepatocyte lipid synthesis inhibitory activity was assessed during incubations in the presence of 0.25 μCi [1-^14C]-acetate/well (final radiospecific activity in assay is 1 Ci/mol) and 0, 1, 3, 10, 30, 100 or 300 μM of compounds for 4 hours. At the end of the 4-hour incubation period, medium was discarded and cells were washed twice with ice-cold phosphate buffered saline and stored frozen prior to analysis. To determine total lipid synthesis, 170 μl of MicroScint-E® and 50 μl water was added to each well to extract and partition the lipid soluble products to the upper organic phase containing the scintillant. Lipid radioactivity was assessed by scintillation spectroscopy in a Packard TopCount NXT.

female obese Zucker rats = assay: Serum lipid and glycemic control variables in chow-fed obese female Zucker rats, daily oral gavage for two weeks; format: in vivo, rat; conditions: Rattus norvegicus; for change in vivo at 100 mg/kg: 100 mg/kg daily oral; for change in vivo at 30 mg/kg: 30 mg/kg daily oral; for change in vivo at 59 mg/kg: 59 mg/kg daily oral
Protocol: Ten- to twelve-week old (400-500 grams) female Zucker fatty rats Cr1: (Zuc)-faBR were obtained from Charles River Laboratories. Animals were acclimated to the laboratory environment for seven days. During the acclimation and study period, animals were housed by group in shoebox polycarbonate cages on Cellu-Dri bedding. The temperature and humidity in the animals' quarters (68-78° F.; 30-75% RH) were monitored and the airflow in the room was sufficient to provide several exchanges per hour with 100% fresh filtered air. An automatic timing device provided an alternating 12-hour cycle of light and dark. Rats received pelleted Purina Laboratory Rodent Chow® (5001) prior to and during the drug intervention period except for a 6-hour phase prior to blood sampling. Fresh water was supplied ad libitum via an automatic watering system. Compounds were dissolved, suspended by mixing in a dosing vehicle consisting of 1.5% carboxymethylcellulose/0.2% Tween 20 or 20% ethanol and 80% polyethylene glycol-200 [v/v]. Dose volume of vehicle or vehicle plus each compound was set at 0.25% of body weight in order to deliver the appropriate dose. Doses were administered daily by oral gavage, approximately between 8-10 AM. Regarding blood sampling, animals were fasted for 6 hours prior to all blood collections. Prior to and after 7 days of dosing, a 1.0- to 2.0-mL sample of blood was collected by administering O2/CO2 anesthesia and bleeding from the orbital venous plexus. Following 14 days of dosing, blood was collected by cardiac puncture after euthanasia with CO2. All blood samples were processed for separation of serum and stored at −80° C. until analysis. Commercially available kits were used to determine serum triglycerides (Roche Diagnostic Corporation, Kit No. 148899 or Boehringer Mannheim, Kit No. 1488872), total cholesterol (Roche Diagnostic Corporation, Kit No. 450061), non-esterified fatty acids (Wako Chemicals, Kit No. 994-75409) and β-hydroxybutyrate (Wako Chemicals, Kit No. 417-73501 or Sigma Kit. No. 310-0) on a Hitachi 912 Automatic Analyzer (Roche Diagnostic Corporation). In some instances, an in-house cholesterol reagent was used to determine total serum cholesterol levels. Serum lipoprotein cholesterol levels were determined by lipoprotein profile analysis. Lipoprotein profiles were analyzed using gel-filtration chromatography on a Superose 6HR (1×30 cm) column equipped with on-line detection of total cholesterol as described by Kieft et al (Kieft, K. A.; Bocan, T. M.; Krause, B. R. Rapid on-line determination of cholesterol distribution among plasma lipoproteins after high-performance gel filtration chromatography. J. Lipid Res. 1991, 32, 859-866.). The total cholesterol content of each lipoprotein was calculated by multiplying the independent values determined for serum total cholesterol by the percent area of each lipoprotein in the profile. The percent body weight gain and the ratio of liver to body weight is also determined. Selected data are shown as absolute values or as a percent change of the pretreatment values in Tables 8 and 9.
Select compounds (214c, 210c, and 210g) were further evalutated in the Zucker rat by performing a full dose response and measuring additional scrum variables including markers for diabetes (Tables 10-12).

[1] = 168 h, 1 wk, 100% = 2-fold increase, Table 8, read-out: HDL-Cholesterol, Percent Change from Pre-Treatment
[2] = 168 h, 1 wk, 100% = 2-fold increase, Table 8, read-out: NonHDL-Cholesterol, Percent Change from Pre-Treatment
[3] = 168 h, 1 wk, 100% = 2-fold increase, Table 8, read-out: TG, Percent Change from Pre-Treatment
[4] = 336 h, 2 wk, 100% = 2-fold increase, Table 8, read-out: HDL-Cholesterol, Percent Change from Pre-Treatment
[5] = 336 h, 2 wk, 100% = 2-fold increase, Table 8, read-out: NonHDL-Cholesterol, Percent Change from Pre-Treatment
[6] = 336 h, 2 wk, 100% = 2-fold increase, Table 8, read-out: TG, Percent Change from Pre-Treatment
[7] = Table 7, ranges: confidence of estimate insufficient to assign a value
[8] = 168 h, 1 wk, Table 9, read-out: HDL-Cholesterol, Percent Change from Pre-Treatment
[9] = 168 h, 1 wk, Table 9, read-out: NonHDL-Cholesterol, Percent Change from Pre-Treatment
[10] = 168 h, 1 wk, Table 9, read-out: TG, Percent Change from Pre-Treatment
[11] = 336 h, 2 wk, Table 9, read-out: HDL-Cholesterol, Percent Change from Pre-Treatment
[12] = 336 h, 2 wk, Table 9, read-out: NonHDL-Cholesterol, Percent Change from Pre-Treatment
[13] = 336 h, 2 wk, Table 9, read-out: TG, Percent Change from Pre-Treatment

| SMILES | melting point | IC50 (primary rat hepatocytes; Table 6) | change in vivo at 100 mg/kg (female obese Zucker rats; [1]) | change in vivo at 100 mg/kg (female obese Zucker rats; [2]) | change in vivo at 100 mg/kg (female obese Zucker rats; [3]) | change in vivo at 100 mg/kg (female obese Zucker rats; [4]) | change in vivo at 100 mg/kg (female obese Zucker rats; [5]) | change in vivo at 100 mg/kg (female obese Zucker rats; [6]) | further results |
| --- | --- | --- | --- | --- | --- | --- | --- | --- | --- |
| O=C(CCCCC1(C(=O)O)CCCC1)CCCCC1(C(=O)O)CCCC1 [Compound 107g, 1-[9-(1-Carboxycyclopentyl)-5-oxononyl]-1-cyclopentanecarboxylic acid] | 99 to 103 °C | 113 µM | 36% | -68% | -67% | 40% | -67% | -70% | – |
| O=C(CCCCC1(C(=O)O)CCC1)CCCCC1(C(=O)O)CCC1 [Compound 107f, 1-[9-(1-Carboxycyclobutyl)-5-oxononyl]-1-cyclo-butanecarboxylic acid] | 69 to 70 °C | 121 µM | -1% | -32% | -58% | 10% | -40% | -59% | – |
| CC(CO)(CCCCC(=O)CCCCC(C)(CO)c1ccccc1)c1ccccc1 (centres unmarked) [Compound 214d, 1,13-Dihydroxy-2,12-dimethyl-2,12-diphenyltridecan-7-one] | – | – | – | – | – | – | – | – | IC50 (primary rat hepatocytes; [7]): 100 to 300 µM; change in vivo at 30 mg/kg (female obese Zucker rats; [8]): -1%; change in vivo at 30 mg/kg (female obese Zucker rats; [9]): -30%; change in vivo at 30 mg/kg (female obese Zucker rats; [10]): -24%; change in vivo at 30 mg/kg (female obese Zucker rats; [11]): -27%; change in vivo at 30 mg/kg (female obese Zucker rats; [12]): 30%; change in vivo at 30 mg/kg (female obese Zucker rats; [13]): 20% |
| CC(C)(Cc1cccc(C(=O)c2cccc(CC(C)(C)C(=O)O)c2)c1)C(=O)O [Compound 231, 3-{3-[3-(2-Carboxy-2-methylpropyl)-benzoyl]-phenyl}-2,2-dimethylpropionic acid] | 46 to 48 °C | – | – | – | – | – | – | – | change in vivo at 59 mg/kg (female obese Zucker rats; [8]): 2%; change in vivo at 59 mg/kg (female obese Zucker rats; [9]): -43%; change in vivo at 59 mg/kg (female obese Zucker rats; [10]): -24%; change in vivo at 59 mg/kg (female obese Zucker rats; [11]): 7%; change in vivo at 59 mg/kg (female obese Zucker rats; [12]): 34%; change in vivo at 59 mg/kg (female obese Zucker rats; [13]): 7% |
| CC(CCCC(=O)CCCC(C)(C(=O)O)c1ccccc1)(C(=O)O)c1ccccc1 (centres unmarked) [Compound 210b, 2,10-Dimethyl-6-oxo-2,10-diphenylundecanedioic acid] | 44 to 46 °C | – | – | – | – | – | – | – | change in vivo at 100 mg/kg (female obese Zucker rats; [8]): 4%; change in vivo at 100 mg/kg (female obese Zucker rats; [9]): 36%; change in vivo at 100 mg/kg (female obese Zucker rats; [10]): 10%; change in vivo at 100 mg/kg (female obese Zucker rats; [11]): 12%; change in vivo at 100 mg/kg (female obese Zucker rats; [12]): 65%; change in vivo at 100 mg/kg (female obese Zucker rats; [13]): 26% |

Now from value to compound, other results behind:

| melting point | SMILES | IC50 (primary rat hepatocytes; Table 6) | change in vivo at 100 mg/kg (female obese Zucker rats; [1]) | change in vivo at 100 mg/kg (female obese Zucker rats; [2]) | change in vivo at 100 mg/kg (female obese Zucker rats; [3]) | change in vivo at 100 mg/kg (female obese Zucker rats; [4]) | change in vivo at 100 mg/kg (female obese Zucker rats; [5]) | change in vivo at 100 mg/kg (female obese Zucker rats; [6]) | further results |
| --- | --- | --- | --- | --- | --- | --- | --- | --- | --- |
| 49 to 52 °C | CC(C)(CCCCC(=O)CCCCC1(C(=O)O)CC1)C(=O)O [Compound 107c, 11-(1-Carboxycyclopropyl)-2,2-dimethyl-7-oxoundecanoic acid] | 0.6 µM | 104% | -84% | -93% | 248% | -20% | -64% | – |
| 78 to 85 °C | O=C(CCCCCC1(C(=O)O)CCCC1)CCCCCC1(C(=O)O)CCCC1 [Compound 107m, 1-[11-(1-Carboxycyclopentyl)-6-oxoundecyl]-1-cyclopentanecarboxylic acid] | 2 µM | 12% | -54% | -63% | 27% | -32% | -48% | – |
| 61 to 62 °C | CC(C)(CCCCCC(=O)CCCCC(C)(C)C(=O)O)C(=O)O [Compound 226, 2,2,13,13-Tetramethyl-7-oxotetradecanedioc acid] | – | – | – | – | – | – | – | IC50 (primary rat hepatocytes; [7]): 3 µM; change in vivo at 100 mg/kg (female obese Zucker rats; [8]): 240%; change in vivo at 100 mg/kg (female obese Zucker rats; [9]): -30%; change in vivo at 100 mg/kg (female obese Zucker rats; [10]): -65%; change in vivo at 100 mg/kg (female obese Zucker rats; [11]): 72%; change in vivo at 100 mg/kg (female obese Zucker rats; [12]): -51%; change in vivo at 100 mg/kg (female obese Zucker rats; [13]): -62% |
| 132 to 134 °C | O=C(CCCCC1(C(=O)O)CC1)CCCCC1(C(=O)O)CC1 [Compound 107d, 1-[9-(1-Carboxycyclopropyl)-5-oxononyl]-1-cyclopropanecarboxylic acid] | 0.3 µM | 180% | 22% | -51% | 260% | 63% | -28% | – |
| 65 to 66 °C | CC(C)(CCCCCC(=O)CCCCCC1(C(=O)O)CC1)C(=O)O [Compound 107k, 13-(1-Carboxycyclopropyl)-2,2-dimethyl-8-oxotridecanoic acid] | 1 µM | 43% | -90% | -93% | 84% | -99% | -98% | – |
